For test [1], the target named is T1, Histone acetyltransferase p300/Hypoxia-inducible factor 1-alpha (Homo sapiens, UniProt Q09472+Q16665). Kind of test: Inhibition of human C-terminal activation domain of HIF-1alpha/CH1 domain of GST-p300 interaction using F-786-826 at 200 uM by fluorescence polarization based assay. In kind it is protein-complex assay.
Target sequence in this assay (Q09472 2-2414 limits assumed): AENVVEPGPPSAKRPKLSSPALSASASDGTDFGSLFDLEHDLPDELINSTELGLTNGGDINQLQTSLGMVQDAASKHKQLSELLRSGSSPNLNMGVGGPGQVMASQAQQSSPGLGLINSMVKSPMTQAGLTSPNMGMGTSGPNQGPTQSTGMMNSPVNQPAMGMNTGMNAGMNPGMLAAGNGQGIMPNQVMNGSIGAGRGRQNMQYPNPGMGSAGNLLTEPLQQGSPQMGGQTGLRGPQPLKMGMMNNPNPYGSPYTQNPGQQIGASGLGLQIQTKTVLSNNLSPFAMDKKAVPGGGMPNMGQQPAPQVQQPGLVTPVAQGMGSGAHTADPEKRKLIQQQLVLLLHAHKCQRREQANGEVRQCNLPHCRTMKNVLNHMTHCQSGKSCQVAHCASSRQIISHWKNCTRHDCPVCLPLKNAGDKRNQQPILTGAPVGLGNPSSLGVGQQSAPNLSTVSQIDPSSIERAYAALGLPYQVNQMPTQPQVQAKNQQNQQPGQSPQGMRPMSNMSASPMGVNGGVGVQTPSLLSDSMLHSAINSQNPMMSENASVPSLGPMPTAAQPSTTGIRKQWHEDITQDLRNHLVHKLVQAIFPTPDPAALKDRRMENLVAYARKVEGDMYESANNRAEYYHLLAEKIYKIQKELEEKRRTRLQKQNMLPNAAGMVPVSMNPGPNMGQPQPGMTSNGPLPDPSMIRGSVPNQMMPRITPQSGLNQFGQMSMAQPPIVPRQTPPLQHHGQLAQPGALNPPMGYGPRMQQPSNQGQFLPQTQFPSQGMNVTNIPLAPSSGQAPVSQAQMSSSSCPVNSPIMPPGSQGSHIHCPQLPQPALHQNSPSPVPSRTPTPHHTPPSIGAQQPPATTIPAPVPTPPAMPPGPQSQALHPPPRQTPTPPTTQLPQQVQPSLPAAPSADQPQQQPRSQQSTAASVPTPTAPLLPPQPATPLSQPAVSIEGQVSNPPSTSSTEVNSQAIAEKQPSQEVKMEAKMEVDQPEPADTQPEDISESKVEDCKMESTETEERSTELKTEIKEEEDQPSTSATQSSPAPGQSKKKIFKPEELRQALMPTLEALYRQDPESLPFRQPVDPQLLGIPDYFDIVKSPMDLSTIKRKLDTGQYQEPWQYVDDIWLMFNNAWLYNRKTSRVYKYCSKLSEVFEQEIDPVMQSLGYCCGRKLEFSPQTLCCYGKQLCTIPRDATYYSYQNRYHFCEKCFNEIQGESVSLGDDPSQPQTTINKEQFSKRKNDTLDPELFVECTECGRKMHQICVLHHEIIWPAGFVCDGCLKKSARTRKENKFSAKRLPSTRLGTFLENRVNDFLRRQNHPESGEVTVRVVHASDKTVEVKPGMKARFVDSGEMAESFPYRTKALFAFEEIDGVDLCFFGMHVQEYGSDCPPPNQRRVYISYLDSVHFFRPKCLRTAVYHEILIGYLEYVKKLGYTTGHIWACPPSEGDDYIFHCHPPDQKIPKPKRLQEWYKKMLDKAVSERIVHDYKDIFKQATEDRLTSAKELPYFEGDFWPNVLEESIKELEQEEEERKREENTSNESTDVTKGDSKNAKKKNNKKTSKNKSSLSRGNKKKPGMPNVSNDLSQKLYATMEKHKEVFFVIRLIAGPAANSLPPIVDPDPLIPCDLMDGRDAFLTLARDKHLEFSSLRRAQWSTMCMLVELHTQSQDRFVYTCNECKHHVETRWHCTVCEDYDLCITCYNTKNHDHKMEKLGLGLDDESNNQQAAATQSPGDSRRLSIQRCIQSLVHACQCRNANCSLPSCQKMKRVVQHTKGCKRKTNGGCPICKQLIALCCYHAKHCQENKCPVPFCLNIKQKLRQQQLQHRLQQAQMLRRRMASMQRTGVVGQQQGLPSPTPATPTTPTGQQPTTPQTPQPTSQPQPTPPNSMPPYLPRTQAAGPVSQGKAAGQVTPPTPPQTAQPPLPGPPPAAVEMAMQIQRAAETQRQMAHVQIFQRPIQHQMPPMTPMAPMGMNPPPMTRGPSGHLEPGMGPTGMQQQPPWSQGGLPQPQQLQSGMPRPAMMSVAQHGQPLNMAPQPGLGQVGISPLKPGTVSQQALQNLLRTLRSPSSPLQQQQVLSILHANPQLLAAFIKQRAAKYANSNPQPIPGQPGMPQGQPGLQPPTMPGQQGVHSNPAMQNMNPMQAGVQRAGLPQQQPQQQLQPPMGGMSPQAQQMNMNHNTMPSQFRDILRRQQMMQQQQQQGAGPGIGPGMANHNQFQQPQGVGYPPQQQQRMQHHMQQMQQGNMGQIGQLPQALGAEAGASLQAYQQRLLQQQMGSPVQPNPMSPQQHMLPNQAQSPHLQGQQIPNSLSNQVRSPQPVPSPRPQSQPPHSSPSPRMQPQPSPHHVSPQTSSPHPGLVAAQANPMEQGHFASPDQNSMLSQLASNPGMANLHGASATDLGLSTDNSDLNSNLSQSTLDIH
Target sequence in this assay (Q16665 whole entry partner, the tested form may be a part): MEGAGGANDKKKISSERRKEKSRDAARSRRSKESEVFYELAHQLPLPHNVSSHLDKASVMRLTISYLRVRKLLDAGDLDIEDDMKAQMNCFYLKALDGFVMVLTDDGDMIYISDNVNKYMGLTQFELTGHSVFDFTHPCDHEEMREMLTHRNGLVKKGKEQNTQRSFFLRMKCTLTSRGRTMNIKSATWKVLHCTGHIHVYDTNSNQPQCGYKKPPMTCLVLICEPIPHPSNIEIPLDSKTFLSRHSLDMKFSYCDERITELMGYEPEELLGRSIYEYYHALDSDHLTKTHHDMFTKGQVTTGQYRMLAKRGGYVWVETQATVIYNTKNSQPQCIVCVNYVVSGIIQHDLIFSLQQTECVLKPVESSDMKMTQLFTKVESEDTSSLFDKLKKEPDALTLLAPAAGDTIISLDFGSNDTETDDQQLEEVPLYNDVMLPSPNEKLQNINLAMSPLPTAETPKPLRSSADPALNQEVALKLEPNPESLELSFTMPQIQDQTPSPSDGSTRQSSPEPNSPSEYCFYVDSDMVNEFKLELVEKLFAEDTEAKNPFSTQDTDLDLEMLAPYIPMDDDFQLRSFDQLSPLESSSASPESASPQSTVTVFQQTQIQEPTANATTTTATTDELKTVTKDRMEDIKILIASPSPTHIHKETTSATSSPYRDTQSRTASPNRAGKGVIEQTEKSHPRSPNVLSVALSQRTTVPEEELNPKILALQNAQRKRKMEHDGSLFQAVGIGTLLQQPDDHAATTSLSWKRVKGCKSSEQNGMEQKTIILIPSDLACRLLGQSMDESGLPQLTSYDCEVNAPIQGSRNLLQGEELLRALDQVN
Test [2] concerns the target T1, Histone acetyltransferase p300/Hypoxia-inducible factor 1-alpha. Kind of test: Inhibition of human C-terminal activation domain of HIF-1alpha/CH1 domain of GST-p300 interaction using F-786-826 by fluorescence polarization based assay. In kind it is protein-complex assay.
The target is the same in test [3]. Kind of test: Inhibition of deferoxamine-induced HIF-1alpha/resin-bound GST-p300 interaction human HeLa cells using coomasie blue staining by GST pull-down assay. In kind it is cell-based.
Target sequence in this assay (Q09472 2-2414 limits assumed): as the sequence (Q09472 2-2414 limits assumed) above
Target sequence in this assay (Q16665 whole entry partner, the tested form may be a part): as the sequence (Q16665 whole entry partner, the tested form may be a part) above
Test [4] deals with Hypoxia-inducible factor 1-alpha (Homo sapiens) (UniProt Q16665). Kind of test: Inhibition of HIF-1alpha in deferoxamine treated human HeLa cells assessed as reduction of VEGF mRNA level at 100 uM after 5 hrs by RT-PCR analysis. Format: cell-based.
Hypoxia-inducible factor 1-alpha (Homo sapiens), sequence (Q16665 whole entry, looked up): as the sequence (Q16665 whole entry partner, the tested form may be a part) above
For test [5] the target is unchanged. In words: Effect on stabilization of HIF-1alpha in deferoxamine treated human HeLa cells at 50 to 500 uM by Western blot analysis. Format: cell-based. On the technique in general: A western blot detects proteins with antibodies after separation by electrophoresis.
For test [6], the system named is HeLa. In words: Cytotoxicity against human deferoxamine treated HeLa cells assessed as decrease of cell viability after 48 hrs by MTT assay. In kind it is functional, cell-based.
Test [7] deals with HeLa. In words: Cytotoxicity against human deferoxamine treated HeLa cells assessed as decrease of cell viability after 24 hrs by MTT assay relative to control. Format: functional. A general note: Tetrazolium dyes change colour on reduction, which living cells bring about.

Structures are written as SMILES. Activity calls are given as the source filed them. The rule behind the calls is not given here.

The term inhibition denotes the change of the read-out against control, counted positive when it falls. For orientation: IC50 means the concentration that gives 50% inhibition. Molecule `CC(C)Cc1cc(CNC(=O)N2CCN(CC(=O)Nc3ccccc3Cl)CC2)nn1-c1ccccc1.Cl` registered an inhibition in test [1] of 80%. For the same molecule, the midpoint of inhibition in test [2], the IC50, lay at 107 µM. In addition, the inhibition result in test [3] and in test [4] was “Active” each time. Further, the result in test [5] was inactive. Moreover, the figures for the Activity result in the test on HeLa [6] and in the test on HeLa [7] were “Dose-dependent effect” and 50%, respectively.

The values are drawn from ChEMBL document CHEMBL2057094, “Inhibition of VEGF transcription through blockade of the hypoxia inducible factor-1α-p300 interaction by a small molecule” (Bioorg Med Chem Lett, 2012).
